Assay: Solubility of drug in aqueous cyclodextrin complexation media (dissolved drug by HPLC)
Format: physicochemical
Description: General procedure: Zero to 40% w/v of various cyclodextrins were dissolved in 0.25% (w/v) PVP polymer, 50 mM MgCl2 solutions with 50 to 150 mM of various amino acids, resulting in an aqueous complexation media. An excess amount of drug was added to the aqueous complexation media, with the suspension formed then sonicated for 60 minutes at 75° C. (some drugs can also be heated at 121° C. for 20 minutes in autoclave). After an equilibrium period, the drug suspensions were filtered and the amount of dissolved drug was determined by HPLC.
To provide further information as to a specific example, production of the third camptothecin formulation (with proline) listed below is described. 20% w/v of randomly methylated β-cyclodextrin was dissolved in 0.25% (w/v) CMC polymer, 50 mM MgCl2 solutions with 50 mM of Proline and 0.02M HCl (buffer). The drug concentration was 0.526±0.009 mg/ml.
To provide further information as to a specific example, production of the first trichlocarban formulation (with lysine) listed below is described. 20% w/v of randomly methlyated β-cyclodextrin was dissolved in 0.25% (w/v) PVP polymer, 50 mM MgCl2 solutions with 50 mM of L-Lysine hydrochloride. The drug concentration was 5.72±0.07 mg/ml.

| Structure (SMILES) | Camptotechin (CPT) 20% RMβCD (50 mM Proline, 0.25% (w/v) CMC polymer, 50 mM MgCl2, 0.02M HCl) [mg/mL] | Camptotechin (CPT) 20% RMβCD (50 mM Proline, 0.25% (w/v) CMC polymer, 50 mM MgCl2, 0.02M HCl, listed as camptothecin) [mg/mL] | Camptotechin (CPT) 20% RMβCD (Cysteine) [mg/mL] | Camptotechin (CPT) 20% RMβCD (Lysine) [mg/mL] | Camptotechin (CPT) 20% RMβCD (No amino acid) [mg/mL] | Camptotechin (CPT) 20% RMβCD (Tryptophan) [mg/mL] | Camptotechin (CPT) 40% HPβCD (40% HPβCD (first column so headed, c2), Lysine) [mg/mL] | Camptotechin (CPT) 40% HPβCD (40% HPβCD (second column so headed, c3), Lysine) [mg/mL] | Trichlocarban (TCC) solubility, CD + poly [µg/mL] | Trichlocarban (TCC) solubility, CD no AA [µg/mL] | solubility of TCC with adipic acid [µg/mL] | solubility of TCC with poly-lysine [µg/mL] |
| --- | --- | --- | --- | --- | --- | --- | --- | --- | --- | --- | --- | --- |
| CC[C@@]1(O)C(=O)OCc2c1cc1n(c2=O)Cc2cc3ccccc3nc2-1 [Camptotechin, camptothecin] | 0.526 ± 0.009 | 0.526 ± 0.009 | 0.334 ± 0.025 | 0.285 ± 0.010 | 0.228 ± 0.009 | 0.375 ± 0.002 | 0.493 ± 0.015 | 0.439 ± 0.022 | – | – | – | – |
| O=C(Nc1ccc(Cl)cc1)Nc1ccc(Cl)c(Cl)c1 [Trichlocarban, trichlocarban] | – | – | – | – | – | – | – | – | 2300 ± 240 | 2050 ± 150 | 5190 ± 210 | 4810 ± 210 |
